Measured values published in patent EP4588921A1, “FREE BASE CRYSTAL FORM OF POLYCYCLIC COMPOUND OF NITROGEN-CONTAINING HETEROCYCLE, AND PREPARATION METHOD THEREFOR” (Jiangsu Hansoh Pharmaceutical Group Co., Ltd., priority 2022, dated 2024).

How the values were obtained:
[1] = target: T1, human OX1R (Homo sapiens, UniProt O43613); assay: Calcium current (FLIPR) in cells stably expressing OX1 receptor; assay type: cell-based; conditions: CHO-K1/human OX1R cells; agonist OX-A at EC80; FLIPR Tetra
T1 construct: expressed in transfected cells; host or cells: CHO-K1
T1 sequence (O43613 1-425): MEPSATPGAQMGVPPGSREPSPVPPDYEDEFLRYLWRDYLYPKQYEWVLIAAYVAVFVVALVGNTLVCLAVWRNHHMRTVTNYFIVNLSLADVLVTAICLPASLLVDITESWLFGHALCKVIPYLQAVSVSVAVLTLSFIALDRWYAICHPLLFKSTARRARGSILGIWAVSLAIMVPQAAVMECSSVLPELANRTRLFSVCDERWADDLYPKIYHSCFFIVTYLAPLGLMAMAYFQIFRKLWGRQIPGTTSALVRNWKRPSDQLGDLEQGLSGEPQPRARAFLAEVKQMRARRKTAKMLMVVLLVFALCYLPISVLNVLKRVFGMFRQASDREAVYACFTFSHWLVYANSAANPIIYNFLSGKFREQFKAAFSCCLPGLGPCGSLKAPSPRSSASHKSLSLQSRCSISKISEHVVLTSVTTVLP
Description: (§1) Determination of the effect of the compounds of the present invention on calcium current in cells stably expressing OX1 and OX2 receptors 1. Experimental objective: The inhibitory effect of the compounds on calcium current activity in CHO-K1/human OX1R and CHO-K1/human OX2R cells was detected. 2. […] 3. […] The IC50 of the positive compounds and test compounds was determined. 4. Experimental data processing method: FLIPR Tetra was used to read and collect the fluorescence signal value (RFU). […] 5.

[2] = target: T2, CYP450 2C19 (Homo sapiens, UniProt P33261); assay: CYP enzyme single point inhibition test, human liver microsomes; assay type: in vitro ADME; conditions: 20 min incubation
T2 construct: Human liver microsome incubation system was used; from tissue; host or cells: human liver microsomes
Description: (§2) Human liver microsome incubation system was used, and the single point method was used to quickly predict the inhibition of compounds on CYP450 enzyme subtypes.
(§3) NADPH (reduced nicotinamide adenine dinucleotide phosphate) was weighed and added to 100 mM phosphate buffer, with the final concentration being 2.5 mM.
(§4) Formulation of the reaction liquid of the test compound: The test example compound was weighed, diluted to 10 mM with DMSO, and diluted to 100 µM with 100 mM phosphate buffer.
(§5) • 1. Liver microsomes (40 µL), substrate (10 µL), and test compound (10 µL) were added to a 96-well plate and the mixture was pre-incubated for 3 min. • 2. NADPH (40 µL) was added. • 3. At 20 min, acetonitrile stop solution containing internal standard (300 µL) was added. • 4. The mixture was centrifuged and the sample was loaded.

[3] = target: T3, CYP450 2D6 (Homo sapiens, UniProt P10635); assay: as above; assay type: in vitro ADME; conditions: 20 min incubation
T3 construct: Human liver microsome incubation system was used; from tissue; host or cells: human liver microsomes
Description: as §2, §3, §4, §5

[4] = target: T4, CYP450 2C9 (Homo sapiens, UniProt P11712); assay: as above; assay type: in vitro ADME; conditions: 20 min incubation
T4 construct: Human liver microsome incubation system was used; from tissue; host or cells: human liver microsomes
Description: as §2, §3, §4, §5

[5] = target: T5, CYP450 1A2 (Homo sapiens, UniProt P05177); assay: as above; assay type: in vitro ADME; conditions: 20 min incubation
T5 construct: Human liver microsome incubation system was used; from tissue; host or cells: human liver microsomes
T5 sequence (P05177 1-516): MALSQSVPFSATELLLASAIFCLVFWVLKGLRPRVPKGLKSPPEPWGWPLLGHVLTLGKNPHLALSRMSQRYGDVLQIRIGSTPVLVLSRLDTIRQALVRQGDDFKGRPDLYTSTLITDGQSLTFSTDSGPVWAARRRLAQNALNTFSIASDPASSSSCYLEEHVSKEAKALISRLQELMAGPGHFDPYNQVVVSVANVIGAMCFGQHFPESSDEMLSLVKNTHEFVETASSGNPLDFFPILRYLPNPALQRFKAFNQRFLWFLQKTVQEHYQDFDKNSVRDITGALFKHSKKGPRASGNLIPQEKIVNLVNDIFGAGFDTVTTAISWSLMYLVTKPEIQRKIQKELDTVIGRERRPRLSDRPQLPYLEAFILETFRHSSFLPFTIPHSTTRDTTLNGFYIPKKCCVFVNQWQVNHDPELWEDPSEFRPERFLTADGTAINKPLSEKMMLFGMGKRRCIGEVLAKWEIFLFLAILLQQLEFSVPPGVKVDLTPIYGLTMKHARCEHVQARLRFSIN
Description: as §2, §3, §4, §5

[6] = in vivo; conditions: male, SD, rat, po, 5 mg/kg
Description: SD rats were used as test animals to study the pharmacokinetic behaviour of the compounds of the present invention in rat (plasma) after oral administration at a dose of 5 mg/kg.
The example compound of the present invention, made in house.
Oral administration drug preparation: 20%HP-β-CD in Water
HP-β-CD powder (20 g) was weighed and dissolved in purified water (100 mL), and the mixture was homogeneously mixed by vortex and subjected to ultrasound treatment to afford a clear solution.
The example compound was weighed and added to a 20 mL glass bottle, the solution was added and the mixture was subjected to ultrasound treatment for 10 minutes to afford a colourless clear solution with a concentration of 0.5 mg/mL.
The brain tissues were rinsed with pre-cooled PBS, wiped dry, weighed, and stored at -80°C.
• 1) Acetonitrile (160 µL) was added to plasma sample (40 µL) for precipitation, and the mixture was mixed and centrifuged at 3500 × g for 5 to 20 minutes. • 2) The treated supernatant solution was taken and subjected to LC/MS/MS to analyse the concentrations of the test compounds. LC/MS/MS analysis instrument: AB Sciex API 4000 Qtrap.
• Liquid phase conditions: Shimadzu LC-20AD pump • Chromatographic column: Agilent ZORBAX XDB-C18 (50×2.1 mm, 3.5 µm) mobile phase: liquid A: 0.1% aqueous formic acid solution, liquid B: acetonitrile • Flow rate: 0.4 mL/min • Elution time: 0-4.0 min, the eluent is as follows:
The main pharmacokinetic parameters were calculated using WinNonlin 6.1.

[7] = target: T6, human OX2R (Homo sapiens, UniProt O43614); assay: Calcium current (FLIPR) in cells stably expressing OX2 receptor; assay type: cell-based; conditions: for IC50: CHO-K1/human OX2R cells, agonist OX-B at EC80, FLIPR Tetra; for Select fold: OX1R IC50 over OX2R IC50
T6 construct: expressed in transfected cells; host or cells: CHO-K1
T6 sequence (O43614 1-444): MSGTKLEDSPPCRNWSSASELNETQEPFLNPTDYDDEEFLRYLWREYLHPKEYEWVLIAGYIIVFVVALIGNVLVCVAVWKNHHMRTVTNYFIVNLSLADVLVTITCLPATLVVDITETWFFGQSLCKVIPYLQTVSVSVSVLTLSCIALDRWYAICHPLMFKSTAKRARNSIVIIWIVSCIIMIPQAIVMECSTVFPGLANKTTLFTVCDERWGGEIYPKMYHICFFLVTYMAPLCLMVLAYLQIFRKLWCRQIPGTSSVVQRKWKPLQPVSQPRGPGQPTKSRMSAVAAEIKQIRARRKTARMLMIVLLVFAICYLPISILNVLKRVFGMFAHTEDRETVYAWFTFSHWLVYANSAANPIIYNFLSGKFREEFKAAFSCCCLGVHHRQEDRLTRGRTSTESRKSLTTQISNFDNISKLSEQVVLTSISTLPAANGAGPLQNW
Description: as §1

T3 sequence (P10635 whole entry): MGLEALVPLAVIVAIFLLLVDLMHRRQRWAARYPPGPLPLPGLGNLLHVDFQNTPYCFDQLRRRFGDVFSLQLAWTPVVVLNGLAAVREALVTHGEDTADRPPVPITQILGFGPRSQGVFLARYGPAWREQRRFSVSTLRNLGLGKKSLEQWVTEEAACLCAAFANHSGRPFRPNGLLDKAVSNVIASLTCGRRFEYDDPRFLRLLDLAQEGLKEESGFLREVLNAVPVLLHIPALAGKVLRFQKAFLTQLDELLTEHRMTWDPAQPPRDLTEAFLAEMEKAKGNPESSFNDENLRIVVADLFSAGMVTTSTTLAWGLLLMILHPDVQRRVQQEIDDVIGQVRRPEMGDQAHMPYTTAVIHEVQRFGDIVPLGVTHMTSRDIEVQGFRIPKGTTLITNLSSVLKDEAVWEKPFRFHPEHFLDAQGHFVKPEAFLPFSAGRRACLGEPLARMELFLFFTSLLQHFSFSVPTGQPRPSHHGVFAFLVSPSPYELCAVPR
T2 sequence (P33261 whole entry): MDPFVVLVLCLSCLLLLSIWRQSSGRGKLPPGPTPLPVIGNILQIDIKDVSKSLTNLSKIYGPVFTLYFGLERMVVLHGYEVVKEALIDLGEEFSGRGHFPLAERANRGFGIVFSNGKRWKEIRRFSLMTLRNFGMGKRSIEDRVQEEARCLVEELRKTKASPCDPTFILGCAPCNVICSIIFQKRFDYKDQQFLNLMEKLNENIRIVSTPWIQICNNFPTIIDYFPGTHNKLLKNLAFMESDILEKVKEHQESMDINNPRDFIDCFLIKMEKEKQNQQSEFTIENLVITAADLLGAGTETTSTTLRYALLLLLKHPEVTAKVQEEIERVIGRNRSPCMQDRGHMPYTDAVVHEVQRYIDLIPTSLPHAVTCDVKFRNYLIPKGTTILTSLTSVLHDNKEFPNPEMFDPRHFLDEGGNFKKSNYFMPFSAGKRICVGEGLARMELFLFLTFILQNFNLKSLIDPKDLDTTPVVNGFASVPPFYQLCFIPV
T4 sequence (P11712 whole entry): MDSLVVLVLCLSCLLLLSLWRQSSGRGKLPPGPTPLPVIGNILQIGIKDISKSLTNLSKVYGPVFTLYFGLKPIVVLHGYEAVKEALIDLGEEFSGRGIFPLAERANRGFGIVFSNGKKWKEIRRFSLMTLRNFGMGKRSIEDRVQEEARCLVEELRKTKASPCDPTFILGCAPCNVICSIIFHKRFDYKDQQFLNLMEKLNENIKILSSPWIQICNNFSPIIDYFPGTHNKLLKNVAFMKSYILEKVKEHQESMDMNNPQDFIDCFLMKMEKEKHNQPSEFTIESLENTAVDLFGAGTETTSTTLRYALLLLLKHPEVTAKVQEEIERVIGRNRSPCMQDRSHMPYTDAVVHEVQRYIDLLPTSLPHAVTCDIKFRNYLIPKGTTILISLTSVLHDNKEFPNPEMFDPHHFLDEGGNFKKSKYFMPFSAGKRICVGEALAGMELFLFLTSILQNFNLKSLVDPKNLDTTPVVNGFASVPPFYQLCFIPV

IC50 [1] [µM]	IC50 [2] [µM]	IC50 [3] [µM]	IC50 [4] [µM]	IC50 [5] [µM]	AUC(0-inf) [6] [ng·h/mL]	Cmax [6] [ng/mL]	Tmax [6] [min]	IC50 [7] [µM]	Select fold [7]	SMILES
1.06	82.7	> 100	> 100	> 100	130	124	36	0.0087	122	CC(C)(O)c1nc(N2C[C@H]3CN(C(=O)c4c(F)cccc4-c4ncccn4)C[C@H]3C2)ncc1F [Compound 9, ((3aR,6aS)-5-(5-fluoro-4-(2-hydroxyprop-2-yl)pyrimidin-2-yl)hexahydropyrrolo[3,4-c]pyrrol-2(1H)-yl)(2-fluoro-6-(pyrimidin-2-yl)phenyl)methanone]
1.32	82.7	> 100	> 100	> 100	821	394	15	0.027	49	Cc1nc(N2C[C@H]3CN(C(=O)c4cccc(F)c4-n4nccn4)C[C@H]3C2)nc(C(C)(C)O)c1F [Compound 11, (3-fluoro-2-(2H-1,2,3-triazol-2-yl)phenyl)((cis)-5-(5-fluoro-4-(2-hydroxypropan-2-yl)-6-methylpyrimidin-2-yl)hexahydropyrrolo [3,4-c]pyrrol-2(1H)-yl)methanone]
